Legend:
[1] = Miscibility of film-forming agent with physiological saline solution (uniformity of solution); format: physicochemical; settings: film-forming agent mixed with same weight of physiological saline solution 9 g/L, room temperature, shaken 20 seconds, macroscopically checked
Experimental: The film-forming agent must be soluble in water. Preferably, at least 5% by weight of the agent are soluble in water. More preferably, it is soluble in water in any ratio. In addition, the water-soluble film-forming agent must be miscible with a physiological saline solution. Whether the film-forming agent is miscible with a physiological saline solution or not can be determined from its phase diagram. […] The uniformity of the resulting solution is determined. Accordingly, the miscibility of the film-forming agent with a physiological saline solution can be determined in a simple manner.
About 1 g of the film-forming agent shown in Table 1 below was metered into a 5 ml glass bottle, and a physiological saline solution with a concentration of 9 g/L of which the weight was the same as that of the film-forming agent was put into the glass bottle, and shaken at room temperature for 20 seconds. The resulting mixture was macroscopically checked as to whether or not it could be a uniform solution.

[2] = Measurement of pH of acid; format: physicochemical; settings: one part by weight of acid in 99 parts by weight of distilled water
Experimental: One part by weight of the acid to be measured is mixed with 99 parts by weight of distilled water, and the pH of the resulting mixture is measured with a pH meter (Iuchi's pH meter).

[3] = Solubility of calcium salt of acid in film-forming agent
Experimental: Next, powdery calcium carbonate (0.1 mmols) is fed into the test tube, and stirred at room temperature for 10 minutes so that it is reacted with the acid to give a calcium salt of the acid. Next, the resulting solution is dried in a drier at 60° C. for 16 hours to remove water, and the 1 ml of a film-forming agent is added to the resulting residue. This is stirred at room temperature for 30 minutes, and the resulting solution is macroscopically checked as to whether it is clear or cloudy. The solubility of the calcium salt in the clear solution is above 0.1 M/L, and the acid is marked “x”.
To the cloudy solution in the test tube, 9 ml of the film-forming agent is further added, and stirred at room temperature for 30 minutes. This is again checked macroscopically. […] When it is still cloudy in this condition, the solubility of the calcium salt is below 0.01 M/L, and the acid is marked “O”. For easily-available calcium salts of acids, such as calcium chloride. calcium nitrate and others, they are not produced in the manner as above, but commercial products are used to measure their solubility.

[4] = Solubility of a calcium salt of an acid in water; settings: for Calcium Salt of Acid: Solubility in water: room temperature, macroscopic check clear or cloudy
Experimental: Next, powdery calcium carbonate (0.1 mmols) is fed into the test tube, and stirred at room temperature for 10 minutes so that it is reacted with the acid. The resulting solution is macroscopically checked as to whether it is clear or cloudy. The solubility of the calcium salt in the clear solution is above 0.1 M/L, and the acid is marked “x”.
To the cloudy solution in the test tube, 9 ml of distilled water is further added, and stirred at room temperature for 30 minutes. This is again checked macroscopically. […] When it is still cloudy in this condition, the solubility of the calcium salt is below 0.01 M/L, and the acid is marked “O”. In case where the solubility of the calcium salt of the acid tested is numerically represented, test tubes having a proper capacity are prepared, and the process as above is repeated in them. Salt solutions having different concentrations are prepared, and they are macroscopically checked to quantitatively determine the solubility of the salt.

[5] = film-forming agent 90% by weight HEMA and 10% by weight BMHPE (Table 2)
[6] = film-forming agent 65% HEMA, 30% BMHPE, 5% Bis-GMA (Table 3)

| Solubility (Uniformity of Reference Solutions) [1] | pH of Acid [2] | Calcium Salt of Acid: Solubility in Film-forming Agent [3, 5] | Molecule | further results |
| --- | --- | --- | --- | --- |
| not dissolved |  |  | C=C(C)C(=O)OCC(O)COCCOCC(O)COC(=O)C(=C)C (centres unmarked) [BMHPE, 1,2-bis(3-methacryloxy-2-hydroxypropoxy)ethane] |  |
|  | 2.9 | ◯ | C=C(C)C(=O)O [MRA, methacrylic acid, reference compound] |  |
|  | 1.4 | ◯ | Cc1ccc(S(=O)(=O)O)cc1 [TSA, p-toluenesulfonic acid, reference compound] | solubility of the calcium salt of the acid in water (in words) ([4]; description, acid used in place of the polymerizable compound having an acid group): too high |
| not dissolved |  |  | C=C(C)C(=O)OCCCO [HPMA, hydroxypropyl methacrylate] |  |
|  | 2.2 | ◯ | 9-methacryloyloxynonyl phosphate [Example 9MNP] | Calcium Salt of Acid: Solubility in water [4]: ◯; Calcium Salt of Acid: Solubility in Film-forming Agent [3, 6]: ◯ |
| dissolved |  |  | C=C(C)C(=O)OCC(O)CO (centres unmarked) [GLM, glycerol monomethacrylate] |  |
|  | 2.3 | ◯ | C=C(C)C(=O)OCCCCCCCCCCOP(=O)(O)O [Example 10MDP, 10-methacryloyloxydecyl phosphate] | solubility in water of calcium salt ([4]; numerical value): 0.0003 M/L; Calcium Salt of Acid: Solubility in water [4]: ◯; Calcium Salt of Acid: Solubility in Film-forming Agent [3, 6]: ◯ |
| not dissolved |  |  | dimethacrylate of polyethylene glycol 200 [PE-200-OMR] |  |
|  | 1.6 |  | O=P(O)(O)O [phosphoric acid] |  |
|  | 1.7 | ◯ | C=C(C)C(=O)OCCOP(=O)(O)O [Example 2MEP, 2-methacryloyloxyethyl phosphate] | Calcium Salt of Acid: Solubility in water [4]: ◯ |
|  | 2.3 | ◯ | 12-methacryloyloxydodecyl phosphate [Example 12MLP] | Calcium Salt of Acid: Solubility in water [4]: ◯; Calcium Salt of Acid: Solubility in Film-forming Agent [3, 6]: ◯ |
|  | 1.7 |  | phenyl-2-methacryloyloxyethyl phosphate [PMEP] |  |
| dissolved |  |  | monomethacrylate of polyethylene glycol 200 [PE-200-OH] |  |
|  | 1.3 |  | O=C(O)C(=O)O [oxalic acid] |  |
|  | 1.6 |  | O=C(O)CC(O)(CC(=O)O)C(=O)O [citric acid] |  |
|  | 2.2 |  | 8-methacryloyloxyoctyl phosphate [Example 8MOP] |  |

| Molecule | Solubility (Uniformity of Reference Solutions) [1] | pH of Acid [2] | Calcium Salt of Acid: Solubility in Film-forming Agent [3, 5] | further results |
| --- | --- | --- | --- | --- |
| O=[N+]([O-])O [nitric acid] |  | 0.9 |  |  |
| Cl [hydrochloric acid] |  | 0.9 |  |  |
| C=C(C)C(=O)OCCO [HEMA, hydroxyethyl methacrylate] | dissolved |  |  |  |
| O=S(=O)(O)O [sulfuric acid] |  | 1.1 |  |  |
